Reference: patent US7618997B2, “Diaminofluorescein derivatives” (Sekisui Medical Co., Ltd., priority 2000, dated 2009)
Where two headings read alike, the source gives them in different places.

Columns and labels:
[1] = pH characteristics of triazole derivatives (fluorescence intensity vs pH); assay type: physicochemical; conditions: 1 μM in sodium phosphate buffers; for pKa: sodium phosphate buffers of various pH, from fluorescence intensity vs pH
Procedure: Triazole derivatives prepared by the method disclosed in U.S. Pat. No. 5,874,590 (DAF-2T and DAF-5T, the structures thereof are shown below) and DAF-FM T were dissolved at 1 μM in sodium phosphate buffers adjusted to each of the pH values, and fluorescence intensity was measured. The excitation wavelength and fluorescence wavelength were 495-515 (nm) for DAF-2T, 505-520 (nm) for DAF-5T and 495-515 (nm) for DAF-FMT, respectively. […] As for DAF-FM T, a dissociable proton was not present in the triazole ring, and therefore the compound was not influenced by pKa and it gave a constant fluorescence intensity at pH 5.8 or higher.

[2] = Photostability under direct sunlight irradiation; assay type: physicochemical; conditions: 1 μM in 0.1 M sodium phosphate buffer pH 7.4, direct sunlight; versus DAF-1T, DAF-2T, DAF-4T, DAF-5T
Procedure: Photostability of the triazole derivatives produced by the method disclosed in U.S. Pat. No. 5,874,590 (DAF-1T, DAF-2T, DAF-4T and DAF-5T, the structures thereof are shown below) and DAF-FM T was tested by direct irradiation with sunlight. The dyes were each dissolved in 0.1 M sodium phosphate buffer (pH 7.4) at a concentration of 1 μM, and the solution was put into vials and exposed to direct sunlight under fine weather for a certain period of time. Samples were collected from the solutions, and fluorescence intensity was measured and compared with respective initial values.

[3] = test system: Bovine aorta endothelial cells; assay: Measurement of extracellularly produced nitrogen monoxide; assay type: cell-based; conditions: 7 μM in PBS(+), 37° C., Ex 500 nm, Em 515 nm, stimulation with A23187, control with inhibitor of nitrogen monoxide synthetase
Procedure: Bovine aorta endothelial cells were cultured, and the cells were removed with trypsin and collected by centrifugation, and then suspended in 2 ml of PBS(+) in which DAF-FM (7 μM) was dissolved. These cells were transferred to a cell for fluorescence measurement, and fluorescence intensity was measured (Ex.: 500 nm, Em.: 515 nm) at 37° C. with stirring. The cells were stimulated with a calcium ionophore A23187 during the measurement so that the cells generated nitrogen monoxide. As control experiments, an inhibitor of nitrogen monoxide synthetase was added after the above measurement, or alternatively, the measurement was performed in the presence of the inhibitor from the beginning.

[4] = read-out: pKa of the hydroxyl group
[5] = read-out: pKa of the proton of the triazole ring

pKa [1, 4] | pKa [1, 5] | pH at which fluorescence intensity is constant ([1]; Ex/Em 495-515 nm) | Compound | photostability (fluorescence intensity compared with initial value) [2] | fluorescence intensity increase on nitrogen monoxide generation by the cells [3]
6.27 | 7.94 | – | O=C1OC2(c3ccc(O)cc3Oc3cc(O)ccc32)c2cc3nn[nH]c3cc21 [DAF-2T] | – | –
4.59 | 7.41 | – | O=C1OC2(c3cc(Cl)c(O)cc3Oc3cc(O)c(Cl)cc32)c2cc3nn[nH]c3cc21 [DAF-5T] | – | –
4.38 | – | ≥ 5.8 | Cn1nnc2c3c(ccc21)C1(OC3=O)c2cc(F)c(O)cc2Oc2cc(O)c(F)cc21 [DAF-FM T, 2″,7″-Difluoro-3″,6″-dihydroxy-spiro[1′-methyltriazolo[4′,5′:4,5]isobenzofuran-1(3H),9″-[9H]xanthen]-3-one] | higher photostability than the other triazole compounds | –
– | – | – | CNc1ccc2c(c1N)C(=O)OC21c2cc(F)c(O)cc2Oc2cc(O)c(F)cc21 [DAF-FM, 4-Amino-5-(N-methylamino)-2′,7′-difluoro-3′,6′-dihydroxy-spiro[isobenzofuran-1(3H),9′-[9H]xanthen]-3-one] | – | increase of fluorescence intensity was caused by nitrogen monoxide
